System: pigweed (Amaranthus retroflexus)
Assay: Test A pre-/postemergence plant response
Format: in vivo
Settings: Postemergence, 500 g ai/ha; 0 to 100 scale, 0 = no effect, 100 = complete control; approx. ten days
Outline: (§1)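 Pre: directed soil spray on seeded loam/sand blend. Post: same formulation (non-phytotoxic solvent + surfactant) on 2–10 cm plants, 1–2 leaf stage. Greenhouse ~10 d; visual injury score 0–100 vs untreated.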

SMILES	Plant response rating, Pigweed
COCCCn1c(-c2cc(F)cc(F)c2)ncc(C(=O)C2=C(O)CCCC2=O)c1=O [Compound 120]	100

Same assay, conditions: Preemergence, 125 g ai/ha; 0 to 100 scale, 0 = no effect, 100 = complete control

SMILES	Plant response rating, Pigweed
COCCCn1c(-c2cc(F)cc(F)c2)ncc(C(=O)C2=C(O)CCCC2=O)c1=O [Compound 120]	100

Same assay, conditions: Preemergence, 500 g ai/ha; visual injury, 0 to 100 scale (0 no effect, 100 complete control), approx. ten days

SMILES	Plant response rating, Pigweed
COCCCn1c(-c2cc(F)cc(F)c2)ncc(C(=O)C2=C(O)CCCC2=O)c1=O [Compound 120]	100

System: velvetleaf (Abutilon theophrasti)
Assay: Test A pre-/postemergence plant response
Format: in vivo
Settings: Postemergence, 125 g ai/ha; 0 to 100 scale where 0 is no effect and 100 is complete control
Outline: as §1

SMILES	Plant response rating, Velvetleaf
COCCCn1c(-c2cc(F)cc(F)c2)ncc(C(=O)C2=C(O)CCCC2=O)c1=O [Compound 120]	100

Same assay, conditions: Postemergence, 500 g ai/ha; 0 to 100 scale, 0 = no effect, 100 = complete control; approx. ten days

SMILES	Plant response rating, Velvetleaf
COCCCn1c(-c2cc(F)cc(F)c2)ncc(C(=O)C2=C(O)CCCC2=O)c1=O [Compound 120]	100

Same assay, conditions: Preemergence, 125 g ai/ha; 0 to 100 scale, 0 = no effect, 100 = complete control

SMILES	Plant response rating, Velvetleaf
COCCCn1c(-c2cc(F)cc(F)c2)ncc(C(=O)C2=C(O)CCCC2=O)c1=O [Compound 120]	80

Same assay, conditions: Preemergence, 500 g ai/ha; visual injury, 0 to 100 scale (0 no effect, 100 complete control), approx. ten days

SMILES	Plant response rating, Velvetleaf
COCCCn1c(-c2cc(F)cc(F)c2)ncc(C(=O)C2=C(O)CCCC2=O)c1=O [Compound 120]	100

System: wheat (Triticum aestivum)
Assay: Test A pre-/postemergence plant response
Format: in vivo
Settings: Postemergence, 125 g ai/ha; 0 to 100 scale where 0 is no effect and 100 is complete control
Outline: as §1

SMILES	Plant response rating, Wheat
COCCCn1c(-c2cc(F)cc(F)c2)ncc(C(=O)C2=C(O)CCCC2=O)c1=O [Compound 120]	20

Same assay, conditions: Postemergence, 500 g ai/ha; 0 to 100 scale, 0 = no effect, 100 = complete control; approx. ten days

SMILES	Plant response rating, Wheat
COCCCn1c(-c2cc(F)cc(F)c2)ncc(C(=O)C2=C(O)CCCC2=O)c1=O [Compound 120]	70

Same assay, conditions: Preemergence, 125 g ai/ha; 0 to 100 scale, 0 = no effect, 100 = complete control

SMILES	Plant response rating, Wheat
COCCCn1c(-c2cc(F)cc(F)c2)ncc(C(=O)C2=C(O)CCCC2=O)c1=O [Compound 120]	0

Same assay, conditions: Preemergence, 500 g ai/ha; visual injury, 0 to 100 scale (0 no effect, 100 complete control), approx. ten days

SMILES	Plant response rating, Wheat
COCCCn1c(-c2cc(F)cc(F)c2)ncc(C(=O)C2=C(O)CCCC2=O)c1=O [Compound 120]	70

System: winter barley (Hordeum vulgare)
Assay: Test B postemergence plant response
Format: in vivo
Settings: 62 g ai/ha, postemergence; 0 is no effect, 100 is complete control; 13 to 15 days
Outline: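 Visual ratings from 0 (no effect) to 100 (complete control), made against controls 13–15 days after treatment, kept in a greenhouse. Compounds were applied postemergence to potted plants at the 1- to 4-leaf stage (2–18 cm).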

SMILES	Barley plant response rating (0 to 100 scale)
COCCCn1c(-c2cc(F)cc(F)c2)ncc(C(=O)C2=C(O)CCCC2=O)c1=O [Compound 120]	5

Same assay, conditions: Postemergence, 125 g ai/ha; scale 0 to 100 (0 no effect, 100 complete control)

SMILES	Plant response rating, Barley
COCCCn1c(-c2cc(F)cc(F)c2)ncc(C(=O)C2=C(O)CCCC2=O)c1=O [Compound 120]	5

Same assay, conditions: Postemergence, 250 g ai/ha; scale 0 to 100 (0 no effect, 100 complete control)

SMILES	Plant response rating, Barley
COCCCn1c(-c2cc(F)cc(F)c2)ncc(C(=O)C2=C(O)CCCC2=O)c1=O [Compound 120]	5

System: barnyardgrass (Echinochloa crus-galli)
Assay: Test B flooded paddy test
Format: in vivo
Settings: 250 g ai/ha; flooded paddy test; visual rating on 0 to 100 scale (0 no effect, 100 complete control) after 13 to 15 days
Outline: (§2)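 Ratings are visual, 0–100 (100 = complete control), taken versus untreated controls 13 to 15 days after treatment in the greenhouse. Compound went straight into paddy water held 3 cm above soil, applied to 2-leaf-stage plants of four species.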

SMILES	Plant response rating, Flood, Barnyardgrass
COCCCn1c(-c2cc(F)cc(F)c2)ncc(C(=O)C2=C(O)CCCC2=O)c1=O [Compound 120]	65

Same assay, conditions: Flood (flooded paddy test), 62 g ai/ha; scale of 0 to 100 where 0 is no effect and 100 is complete control; 13 to 15 days

SMILES	Plant response rating, Barnyardgrass
COCCCn1c(-c2cc(F)cc(F)c2)ncc(C(=O)C2=C(O)CCCC2=O)c1=O [Compound 120]	20

System: ducksalad (Heteranthera limosa)
Assay: Test B flooded paddy test
Format: in vivo
Settings: 250 g ai/ha; flooded paddy test; visual rating on 0 to 100 scale (0 no effect, 100 complete control) after 13 to 15 days
Outline: as §2

SMILES	Plant response rating, Flood, Ducksalad
COCCCn1c(-c2cc(F)cc(F)c2)ncc(C(=O)C2=C(O)CCCC2=O)c1=O [Compound 120]	85

Same assay, conditions: Flood (flooded paddy test), 62 g ai/ha; scale of 0 to 100 where 0 is no effect and 100 is complete control; 13 to 15 days

SMILES	Plant response rating, Ducksalad
COCCCn1c(-c2cc(F)cc(F)c2)ncc(C(=O)C2=C(O)CCCC2=O)c1=O [Compound 120]	30

System: rice (Oryza sativa)
Assay: Test B flooded paddy test
Format: in vivo
Settings: 250 g ai/ha; flooded paddy test; visual rating on 0 to 100 scale (0 no effect, 100 complete control) after 13 to 15 days
Outline: as §2

SMILES	Plant response rating, Flood, Rice
COCCCn1c(-c2cc(F)cc(F)c2)ncc(C(=O)C2=C(O)CCCC2=O)c1=O [Compound 120]	40

Same assay, conditions: Flood (flooded paddy test), 62 g ai/ha; scale of 0 to 100 where 0 is no effect and 100 is complete control; 13 to 15 days

SMILES	Plant response rating, Rice
COCCCn1c(-c2cc(F)cc(F)c2)ncc(C(=O)C2=C(O)CCCC2=O)c1=O [Compound 120]	0

System: umbrella sedge (Cyperus difformis)
Assay: Test B flooded paddy test
Format: in vivo
Settings: 250 g ai/ha; flooded paddy test; visual rating on 0 to 100 scale (0 no effect, 100 complete control) after 13 to 15 days
Outline: as §2

SMILES	Plant response rating, Flood, Sedge, Umbrella
COCCCn1c(-c2cc(F)cc(F)c2)ncc(C(=O)C2=C(O)CCCC2=O)c1=O [Compound 120]	75

Same assay, conditions: Flood (flooded paddy test), 62 g ai/ha; scale of 0 to 100 where 0 is no effect and 100 is complete control; 13 to 15 days

SMILES	Plant response rating, Sedge, Umbrella
COCCCn1c(-c2cc(F)cc(F)c2)ncc(C(=O)C2=C(O)CCCC2=O)c1=O [Compound 120]	40
